In patent US11738022B2, “Methods for inducing pupil dilation” (THE REGENTS OF THE UNIVERSITY OF COLORADO, A BODY CORPORATE, priority 2017, dated 2023):
Counter-ions that a name gives are not always drawn.

Key:
pupil = assay: Pupil dilation measured with Neuroptics pupillometer after α-2 agonist pre-treatment and/or phenylephrine; format: in vivo, human; details: for Pupil size, Treated eye / Surgical Work area, Treated eye / Pupil size, Non-treated eye / Surgical Work area, Non-treated eye: photopic conditions (1258.925 lux) after dilation with phenylephrine 10%; for Pupil size, Non-treated eye / Surgical Work area, Non-treated eye: eye without pre-treatment
Experimental: Dilation medication used was Phenylephrine hydrochloride 10% (Akorn, Inc). Pupillometer used was a Neuroptics DP-2000 Binocular Pupillometer).
Dilation using phenylephrine hydrochloride 10% was conducted in both eyes of the test subject to use as a control against the other compounds being tested.
After this, dilation using phenylephrine hydrochloride 2.5% or phenylephrine hydrochloride 10% was conducted to investigate the effects of the compound on pupil dilation.
Apracionidine 0.5% was administered in the right eye of the test subject three (3) times a day for 4 days. After this, dilation using phenylephrine hydrochloride 10% was conducted to investigate the effects of the compound on pupil dilation.
After this, dilation using phenylephrine hydrochloride 10% was conducted to investigate the effects of the compound on pupil dilation.
A washout period of multiple months was undertaken in between each experiment.
Pupil measurements were obtained using a Neuroptics pupillometer. Parameters were as follows: Scotopic conditions for 1 second, followed by photopic conditions for 4 seconds (1258.925 lux), followed by scotopic conditions for 10 seconds. This allowed for investigation of scotopic pupil size, photopic pupil size, and scotopic pupil size recovery after the light stimulus concluded.
The pupils of the subject's pretreated right eye and untreated control left eye were then measured under both scotopic and photopic conditions for baseline measurements (FIG. 6A). Photopic conditions consisted of a 4 second window where a light was shining in both eyes simultaneously. […]
The experiment was repeated at a higher dosage wherein the subject was administered a second ophthalmic formulation containing 10% phenylephrine to both eyes. 30 minutes after instillation of 10% phenylephrine, the pupils of the subject were then measured under both scotopic and photopic conditions (FIG. 6C). […] Because the area of a circle is dependent on the radius squared (area of a circle=πr^2), the increase in area that is created from a increasing the pupil dilation size is not linear.
The results were then compared.

α receptors (α2:α1) = details: affinity ratio; cited from earlier work
[1] = after dilation with phenylephrine hydrochloride 10%
[2] = after pre-treatment of right eye only, 3 times a day for 4 days, before phenylephrine
[3] = after pre-treatment of right eye only, 3 times a day for 4 days, before phenylephrine, left eye not treated
[4] = dilation pre and post treatment with α 2 agonist: treated eye vs control measurements of same eye
[5] = non-treated eye dilation compared to treated eye dilation
[6] = right eye pre-treated 3 times a day for 4 days, then phenylephrine 10% both eyes
[7] = right eye pre-treated 3 times a day for 4 days, then phenylephrine 10% both eyes, left eye not pre-treated
[8] = phenylephrine hydrochloride 10% both eyes, no pre-treatment (FIG. 5B)

Cc1cccc([C@H](C)c2cnc[nH]2)c1C [Dexmedetomidine, dexmedetomidine]
increase of surgical work area compared to the pre-treatment control dilation amount in the same eye (pupil; [1]): +220%
CH LStim Ave (pupil; [2]): 64%
CH RPupil Ave (pupil; [2]): 64%
CH RStim Ave (pupil; [2]): 64%
CH Right (pupil; [2]): 64%
CLAT LStim Ave (pupil; [2]): 0.36 s
CLAT RPupil Ave (pupil; [2]): 0.38 s
CLAT RStim Ave (pupil; [2]): 0.36 s
CLAT Right (pupil; [2]): 0.38 s
DELTA LStim Ave (pupil; [2]): 4.01 mm
DELTA RPupil Ave (pupil; [2]): 4.19 mm
DELTA RStim Ave (pupil; [2]): 4.01 mm
DV LStim Ave (pupil; [2]): 0.95 mm/s
DV RPupil Ave (pupil; [2]): 0.96 mm/s
DV RStim Ave (pupil; [2]): 0.95 mm/s
DV Right (pupil; [2]): 0.96 mm/s
MCV LStim Ave (pupil; [2]): 5.42 mm/s
MCV RPupil Ave (pupil; [2]): 5.84 mm/s
MCV RStim Ave (pupil; [2]): 5.42 mm/s
Max LStim Ave (pupil; [2]): 6.30 mm
Max RStim Ave (pupil; [2]): 6.30 mm
Max Right (pupil; [2]): 6.57 mm
Min LStim Ave (pupil; [2]): 2.29 mm
Min RPupil Ave (pupil; [2]): 2.38 mm
Min RStim Ave (pupil; [2]): 2.29 mm
Min Right (pupil; [2]): 2.38 mm
CH LPupil Ave (pupil; [3]): 64%
CH Left (pupil; [3]): 64%
CLAT LPupil Ave (pupil; [3]): 0.34 s
CLAT Left (pupil; [3]): 0.34 s
DELTA Left (pupil; [3]): 3.83 mm
DV Left (pupil; [3]): 0.94 mm/s
MCV Left (pupil; [3]): 4.99 mm/s
Max Left (pupil; [3]): 6.03 mm
Min Left (pupil; [3]): 2.20 mm
Pupil size change (%) (pupil; [4]): +78.83%
Surgical work area change (%) (pupil; [4]): +219.8%
Pupil size change (%) (pupil; [5]): +74.46%
Surgical work area (%) (pupil; [5]): +204.4%
Pupil size, Treated eye (pupil): 6.42 mm
Surgical Work area, Treated eye (pupil): 32.35 mm^2
Pupil size, Non-treated eye (pupil): 3.68 mm
Surgical Work area, Non-treated eye (pupil): 10.63 mm^2
CH LStim Ave (pupil; [6]): 46%
CH RPupil Ave (pupil; [6]): 34%
CH RStim Ave (pupil; [6]): 46%
CH Right (pupil; [6]): 34%
CLAT LStim Ave (pupil; [6]): 0.20 s
CLAT RPupil Ave (pupil; [6]): 0.16 s
CLAT RStim Ave (pupil; [6]): 0.20 s
CLAT Right (pupil; [6]): 0.16 s
DELTA LStim Ave (pupil; [6]): 4.22 mm
DELTA RPupil Ave (pupil; [6]): 3.31 mm
DELTA RStim Ave (pupil; [6]): 4.22 mm
DV LStim Ave (pupil; [6]): 0.94 mm/s
DV RPupil Ave (pupil; [6]): 0.80 mm/s
DV RStim Ave (pupil; [6]): 0.94 mm/s
DV Right (pupil; [6]): 0.80 mm/s
MCV LStim Ave (pupil; [6]): 3.24 mm/s
MCV RPupil Ave (pupil; [6]): 2.49 mm/s
MCV RStim Ave (pupil; [6]): 3.24 mm/s
Max LStim Ave (pupil; [6]): 9.27 mm
Max RStim Ave (pupil; [6]): 9.27 mm
Max Right (pupil; [6]): 9.73 mm
Min LStim Ave (pupil; [6]): 5.05 mm
Min RPupil Ave (pupil; [6]): 6.42 mm
Min RStim Ave (pupil; [6]): 5.05 mm
Min Right (pupil; [6]): 6.42 mm
CH LPupil Ave (pupil; [7]): 58%
CH Left (pupil; [7]): 58%
CLAT LPupil Ave (pupil; [7]): 0.24 s
CLAT Left (pupil; [7]): 0.24 s
DELTA Left (pupil; [7]): 5.13 mm
DV Left (pupil; [7]): 1.08 mm/s
MCV Left (pupil; [7]): 4.00 mm/s
Max Left (pupil; [7]): 8.81 mm
Min Left (pupil; [7]): 3.68 mm
α2:α1 affinity (α receptors (α2:α1)): 1620

Nc1cc(Cl)c(N=C2NCCN2)c(Cl)c1 [Apraclonidine, apraclonidine]
effect of pre-treatment on dilation (pupil; [1]): hindered dilation
CH LStim Ave (pupil; [2]): 62%
CH RPupil Ave (pupil; [2]): 61%
CH RStim Ave (pupil; [2]): 62%
CH Right (pupil; [2]): 61%
CLAT LStim Ave (pupil; [2]): 0.21 s
CLAT RPupil Ave (pupil; [2]): 0.21 s
CLAT RStim Ave (pupil; [2]): 0.21 s
CLAT Right (pupil; [2]): 0.21 s
DELTA LStim Ave (pupil; [2]): 4.25 mm
DELTA RPupil Ave (pupil; [2]): 4.20 mm
DELTA RStim Ave (pupil; [2]): 4.25 mm
DV LStim Ave (pupil; [2]): 1.08 mm/s
DV RPupil Ave (pupil; [2]): 1.19 mm/s
DV RStim Ave (pupil; [2]): 1.08 mm/s
DV Right (pupil; [2]): 1.19 mm/s
MCV LStim Ave (pupil; [2]): 5.93 mm/s
MCV RPupil Ave (pupil; [2]): 6.01 mm/s
MCV RStim Ave (pupil; [2]): 5.93 mm/s
Max LStim Ave (pupil; [2]): 6.87 mm
Max RStim Ave (pupil; [2]): 6.87 mm
Max Right (pupil; [2]): 6.91 mm
Min LStim Ave (pupil; [2]): 2.62 mm
Min RPupil Ave (pupil; [2]): 2.71 mm
Min RStim Ave (pupil; [2]): 2.62 mm
Min Right (pupil; [2]): 2.71 mm
CH LPupil Ave (pupil; [3]): 63%
CH Left (pupil; [3]): 63%
CLAT LPupil Ave (pupil; [3]): 0.21 s
CLAT Left (pupil; [3]): 0.21 s
DELTA Left (pupil; [3]): 4.28 mm
DV Left (pupil; [3]): 0.97 mm/s
MCV Left (pupil; [3]): 5.85 mm/s
Max Left (pupil; [3]): 6.82 mm
Min Left (pupil; [3]): 2.54 mm
Pupil size change (%) (pupil; [4]): −17.83%
Surgical work area change (%) (pupil; [4]): −32.48%
Pupil size change (%) (pupil; [5]): −40.4%
Surgical work area (%) (pupil; [5]): −64.48%
Pupil size, Treated eye (pupil): 2.95 mm
Surgical Work area, Treated eye (pupil): 6.831 mm^2
Pupil size, Non-treated eye (pupil): 4.95 mm
Surgical Work area, Non-treated eye (pupil): 19.23 mm^2
CH LStim Ave (pupil; [6]): 54%
CH RPupil Ave (pupil; [6]): 62%
CH RStim Ave (pupil; [6]): 54%
CH Right (pupil; [6]): 62%
CLAT LStim Ave (pupil; [6]): 0.22 s
CLAT RPupil Ave (pupil; [6]): 0.21 s
CLAT RStim Ave (pupil; [6]): 0.22 s
CLAT Right (pupil; [6]): 0.21 s
DELTA LStim Ave (pupil; [6]): 4.59 mm
DELTA RPupil Ave (pupil; [6]): 4.88 mm
DELTA RStim Ave (pupil; [6]): 4.59 mm
DV LStim Ave (pupil; [6]): 1.21 mm/s
DV RPupil Ave (pupil; [6]): 1.18 mm/s
DV RStim Ave (pupil; [6]): 1.21 mm/s
DV Right (pupil; [6]): 1.18 mm/s
MCV LStim Ave (pupil; [6]): 3.80 mm/s
MCV RPupil Ave (pupil; [6]): 5.03 mm/s
MCV RStim Ave (pupil; [6]): 3.80 mm/s
Max LStim Ave (pupil; [6]): 8.54 mm
Max RStim Ave (pupil; [6]): 8.54 mm
Max Right (pupil; [6]): 7.83 mm
Min LStim Ave (pupil; [6]): 3.95 mm
Min RPupil Ave (pupil; [6]): 2.95 mm
Min RStim Ave (pupil; [6]): 3.95 mm
Min Right (pupil; [6]): 2.95 mm
CH LPupil Ave (pupil; [7]): 46%
CH Left (pupil; [7]): 46%
CLAT LPupil Ave (pupil; [7]): 0.23 s
CLAT Left (pupil; [7]): 0.23 s
DELTA Left (pupil; [7]): 4.30 mm
DV Left (pupil; [7]): 1.24 mm/s
MCV Left (pupil; [7]): 2.58 mm/s
Max Left (pupil; [7]): 9.25 mm
Min Left (pupil; [7]): 4.95 mm
α2:α1 affinity (α receptors (α2:α1)): 150

CNC[C@H](O)c1cccc(O)c1 [Phenylephrine hydrochloride 10%, phenylephrine]
CH LPupil Ave (pupil; [8]): 58%
CH LStim Ave (pupil; [8]): 57%
CH Left (pupil; [8]): 58%
CH RPupil Ave (pupil; [8]): 56%
CH RStim Ave (pupil; [8]): 57%
CH Right (pupil; [8]): 56%
CLAT LPupil Ave (pupil; [8]): 0.24 s
CLAT LStim Ave (pupil; [8]): 0.22 s
CLAT Left (pupil; [8]): 0.24 s
CLAT RPupil Ave (pupil; [8]): 0.20 s
CLAT RStim Ave (pupil; [8]): 0.22 s
CLAT Right (pupil; [8]): 0.20 s
DELTA LStim Ave (pupil; [8]): 4.63 mm
DELTA Left (pupil; [8]): 4.65 mm
DELTA RPupil Ave (pupil; [8]): 4.62 mm
DELTA RStim Ave (pupil; [8]): 4.63 mm
DV LStim Ave (pupil; [8]): 1.43 mm/s
DV Left (pupil; [8]): 1.40 mm/s
DV RPupil Ave (pupil; [8]): 1.45 mm/s
DV RStim Ave (pupil; [8]): 1.43 mm/s
DV Right (pupil; [8]): 1.45 mm/s
MCV LStim Ave (pupil; [8]): 4.62 mm/s
MCV Left (pupil; [8]): 4.78 mm/s
MCV RPupil Ave (pupil; [8]): 4.46 mm/s
MCV RStim Ave (pupil; [8]): 4.62 mm/s
Max LStim Ave (pupil; [8]): 8.11 mm
Max Left (pupil; [8]): 8.01 mm
Max RStim Ave (pupil; [8]): 8.11 mm
Max Right (pupil; [8]): 8.21 mm
Min LStim Ave (pupil; [8]): 3.48 mm
Min Left (pupil; [8]): 3.36 mm
Min RPupil Ave (pupil; [8]): 3.59 mm
Min RStim Ave (pupil; [8]): 3.48 mm
Min Right (pupil; [8]): 3.59 mm
Pupil size, Treated eye (pupil): 3.59 mm
Surgical Work area, Treated eye (pupil): 10.12 mm^2
Pupil size, Non-treated eye (pupil): 3.36 mm
Surgical Work area, Non-treated eye (pupil): 8.862 mm^2
